In PubChem BioAssay AID2060886 (Molecular Pharmacology Branch, DTP, NCI, 2025):

Tested on: 653999-131-R-J2-PDC complex spheroids, growth inhibition
Assay: Anticancer human tumor 653999-131-R-J2-PDC patient-derived lung adenocarcinoma cell line growth inhibition [RAS]
Details: for viability, T/C: stronger effect = lower value
Source text: RAS pathway inhibitors in Combinations in Complex Spheroids
A high-throughput screen of multi-cell type tumor spheroids was designed to identify active combinations of RAS pathway inhibitors and targeted small molecules. Complex spheroids include a stromal component modeled by human endothelial cells (HUVEC) and fibroblasts modeled by human mesenchymal stem cells (MSCs). The concentration ranges selected for each drug and investigational agent were based upon clinically achievable concentrations if the clinical Cmax of the agent was known.
Compounds. The drugs and investigational agents: abemaciclib (NSC768073), cobimetinib (NSC768068), divarasib (GDC6063, NSC841802), docetaxel (NSC628503), GDC-1971 (RLY-1971, NSC841576), gemcitabine (NSC613327), inavolisib (NSC800729), ipatasertib (NSC767898), KB-0742 (NSC834161), MRTX-1133 (NSC836407), osimertinib (NSC779217), RMC-4630 (NSC839698), RMC-6236 (NSC851965), RMC-6291 (NSC852671), Ro-3306 (NSC812927), sapanisertib (NSC764658), SN-38 (NSC673596), staurosporine (NSC755774), SY5609 (NSC837396), and tovorafenib (DAY101, NSC766906), were obtained from the National Cancer Institute (NCI) Developmental Therapeutics Program Chemical Repository. The FDA-approved anticancer drug set is available from the NCI Developmental Therapeutics Program. […] The stock solutions were prepared in dimethyl sulfoxide (DMSO, Sigma-Aldrich, St. Louis, MO, cat. D2650) at 800-fold the tested concentration and stored at -70 degrees C prior to their use. All drugs and investigational agents were tested over a range starting from a high concentration at or near the clinical Cmax and decreasing in half-log increments. If the clinical Cmax for an agent had not been determined, the highest concentration tested was 10 microM.
Cell Culture. All cells were maintained in an incubator at 37 degrees C and 5% CO2 with 95% humidity. The PDC lines were cultured according to standard operating procedures established by the NCI PDMR. All PDCs were thawed and cultured in Matrigel-coated flasks prepared with a working solution of 1X Ham's F-12 nutrient mix, without supplementation (Invitrogen, Waltham, MA, cat. 11765054), 100 U/mL penicillin-streptomycin (Invitrogen, cat. 15140122), and 2.5% Matrigel (Corning Inc., Corning, NY, cat. 354248) for the first three passages. The 362531-283-R-J2-PDC and 782815-120-R-J1-PDC lines were cultured in 6C/Colon 1B media, which includes advanced DMEM/F-12 (Thermo Fisher Scientific, cat. 12634028), 10 mM HEPES (Thermo Fisher Scientific, cat. 15630080), 1X GlutaMAX supplement (Thermo Fisher Scientific, cat. 35050061), 0.1 mg/mL primocin (InvivoGen, San Diego, CA, cat. ant-pm-2), 10% defined fetal bovine serum, heat inactivated (HyClone Laboratories Inc., Logan, UT, cat. SH30070.03HI), 50% L-WRN conditioned media (ATCC, cat. CRL-3276), 1.25 mM N-Acetyl-L-cysteine (Sigma-Aldrich, cat. A9165), 10 mM nicotinamide (Sigma-Aldrich, cat. N0636), 1X B-27 supplement (Thermo Fisher Scientific, cat. 17504044), 1X N-2 supplement (Thermo Fisher Scientific, cat. 17502048), 50 ng/mL human EGF (Thermo Fisher Scientific, cat. PHG0311), and 10 microM Y-27632 dihydrochloride (Tocris Bioscience, cat. 1254). The K12877-001-R-J1-PDC line was cultured in 6I media, which includes all 6C/Colon 1B media plus 10 ng/mL human FGF-10 (PeproTech, cat. 100-26), 1 ng/mL human FGF-2 (PeproTech, cat. 100-18B), 1 µM prostaglandin E2 (Tocris Bioscience, cat. 2296), […] hydrocortisone (Sigma-Aldrich, cat. H4001), and […] bovine insulin (Sigma-Aldrich, cat. I6634). The K86415-001-R-J1-PDC line was cultured in 6D media, which includes all 6C/Colon 1B media components minus the L-WRN conditioned media. The 485176-168-R4-J1-PDC was cultured in PANC media, which includes all 6C/Colon 1B media plus 100 ng/mL human FGF-10 (PeproTech, cat. 100-26), 500 nM SB-431542 (Selleckchem, cat. S1067), and 10 nM gastrin (Tocris Bioscience, cat. 3006). […]

[1] = curve of first compound, second compound 0.0316 µM
[2] = curve of first compound, second compound 0.1 µM
[3] = curve of first compound, second compound 0.316 µM
[4] = curve of first compound, second compound 1 µM
[5] = second compound 0.0316 µM, first compound 0.0316 µM
[6] = second compound 0.0316 µM, first compound 0.1 µM
[7] = second compound 0.0316 µM, first compound 0.316 µM
[8] = second compound 0.0316 µM, first compound 1 µM
[9] = second compound 0.0316 µM, first compound 3.16 µM
[10] = second compound 0.0316 µM, first compound 10 µM
[11] = second compound 0.1 µM, first compound 0.0316 µM
[12] = second compound 0.1 µM, first compound 0.1 µM
[13] = second compound 0.1 µM, first compound 0.316 µM
[14] = second compound 0.1 µM, first compound 1 µM
[15] = second compound 0.1 µM, first compound 3.16 µM
[16] = second compound 0.1 µM, first compound 10 µM
[17] = second compound 0.316 µM, first compound 0.0316 µM
[18] = second compound 0.316 µM, first compound 0.1 µM
[19] = second compound 0.316 µM, first compound 0.316 µM
[20] = second compound 0.316 µM, first compound 1 µM
[21] = second compound 0.316 µM, first compound 3.16 µM
[22] = second compound 0.316 µM, first compound 10 µM
[23] = second compound 1 µM, first compound 0.0316 µM
[24] = second compound 1 µM, first compound 0.1 µM
[25] = second compound 1 µM, first compound 0.316 µM
[26] = second compound 1 µM, first compound 1 µM
[27] = second compound 1 µM, first compound 3.16 µM
[28] = second compound 1 µM, first compound 10 µM
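Further: spheroids exposed to the agents for seven days before the readout.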

Structure (SMILES): CC(Nc1ccc2c(c1)OCCn1cc(N3C(=O)OCC3C(F)F)nc1-2)C(N)=O (stereo unspecified) + C=CC(=O)N1CCN(c2nc(OCC3CCCN3C)nc3c(F)c(-c4nc(N)cc(C)c4C(F)(F)F)c(Cl)cc23)C(C)C1
- IC50 (curve of first compound, second compound 0.00316 µM): 0.645 µM
- IC50 (curve of first compound, second compound 0.01 µM): 0.717 µM
- IC50 [1]: 0.636 µM
- IC50 [2]: 1.16 µM
- IC50 [3]: 0.536 µM
- IC50 [4]: 0.571 µM
- viability, T/C (second compound 0.00316 µM, first compound 0.0316 µM): 111%
- viability, T/C (second compound 0.00316 µM, first compound 0.1 µM): 75.6%
- viability, T/C (second compound 0.00316 µM, first compound 0.316 µM): 55.9%
- viability, T/C (second compound 0.00316 µM, first compound 1 µM): 51.5%
- viability, T/C (second compound 0.00316 µM, first compound 3.16 µM): 36.5%
- viability, T/C (second compound 0.00316 µM, first compound 10 µM): 25.3%
- viability, T/C (second compound 0.01 µM, first compound 0.0316 µM): 104%
- viability, T/C (second compound 0.01 µM, first compound 0.1 µM): 83.6%
- viability, T/C (second compound 0.01 µM, first compound 0.316 µM): 61.1%
- viability, T/C (second compound 0.01 µM, first compound 1 µM): 42.2%
- viability, T/C (second compound 0.01 µM, first compound 3.16 µM): 40.4%
- viability, T/C (second compound 0.01 µM, first compound 10 µM): 26.5%
- viability, T/C [5]: 96.5%
- viability, T/C [6]: 70.1%
- viability, T/C [7]: 58.9%
- viability, T/C [8]: 44.9%
- viability, T/C [9]: 38.5%
- viability, T/C [10]: 26%
- viability, T/C [11]: 85.6%
- viability, T/C [12]: 66.3%
- viability, T/C [13]: 68.8%
- viability, T/C [14]: 50.7%
- viability, T/C [15]: 40%
- viability, T/C [16]: 21.6%
- viability, T/C [17]: 85.9%
- viability, T/C [18]: 78.1%
- viability, T/C [19]: 55.1%
- viability, T/C [20]: 40.9%
- viability, T/C [21]: 37.5%
- viability, T/C [22]: 26.9%
- viability, T/C [23]: 87.9%
- viability, T/C [24]: 67.6%
- viability, T/C [25]: 60.5%
- viability, T/C [26]: 37.9%
- viability, T/C [27]: 41.3%
- viability, T/C [28]: 28.7%

Structure (SMILES): Cc1nc(N2CCC3(CC2)COC(C)C3N)c(CO)nc1Sc1ccnc(N)c1Cl (stereo unspecified) + C#Cc1c(F)ccc2cc(O)cc(-c3ncc4c(N5CC6CCC(C5)N6)nc(OCC56CCCN5CC(F)C6)nc4c3F)c12
- IC50 [1]: > 10 µM
- IC50 [2]: > 10 µM
- IC50 [3]: > 10 µM
- IC50 [4]: 0.193 µM
- IC50 (curve of first compound, second compound 3.16 µM): < 0.0316 µM
- IC50 (curve of first compound, second compound 10 µM): < 0.0316 µM
- viability, T/C [5]: 89.8%
- viability, T/C [6]: 88.9%
- viability, T/C [7]: 74.5%
- viability, T/C [8]: 69.2%
- viability, T/C [9]: 73.2%
- viability, T/C [10]: 76.2%
- viability, T/C [11]: 65.3%
- viability, T/C [12]: 62.1%
- viability, T/C [13]: 66%
- viability, T/C [14]: 60%
- viability, T/C [15]: 64.3%
- viability, T/C [16]: 55.2%
- viability, T/C [17]: 68.4%
- viability, T/C [18]: 52.6%
- viability, T/C [19]: 50.5%
- viability, T/C [20]: 45.9%
- viability, T/C [21]: 74.5%
- viability, T/C [22]: 47.9%
- viability, T/C [23]: 61.8%
- viability, T/C [24]: 52.9%
- viability, T/C [25]: 48.5%
- viability, T/C [26]: 41.1%
- viability, T/C [27]: 30.5%
- viability, T/C [28]: 30.2%
- viability, T/C (second compound 3.16 µM, first compound 0.0316 µM): 41.9%
- viability, T/C (second compound 3.16 µM, first compound 0.1 µM): 35.4%
- viability, T/C (second compound 3.16 µM, first compound 0.316 µM): 32.2%
- viability, T/C (second compound 3.16 µM, first compound 1 µM): 21.8%
- viability, T/C (second compound 3.16 µM, first compound 3.16 µM): 17.3%
- viability, T/C (second compound 3.16 µM, first compound 10 µM): 20.2%
- viability, T/C (second compound 10 µM, first compound 0.0316 µM): 27%
- viability, T/C (second compound 10 µM, first compound 0.1 µM): 13.9%
- viability, T/C (second compound 10 µM, first compound 0.316 µM): 18.9%
- viability, T/C (second compound 10 µM, first compound 1 µM): 11%
- viability, T/C (second compound 10 µM, first compound 3.16 µM): 8.6%
- viability, T/C (second compound 10 µM, first compound 10 µM): 9.77%

Structure (SMILES): CCn1c(-c2cc(N3CCN(C)CC3)cnc2C(C)OC)c2c3cc(ccc31)-c1csc(n1)CC(NC(=O)C1CC1C)C(=O)N1CCCC(N1)C(=O)OCC(C)(C)C2 (stereo unspecified)
- viability, T/C (compound 0.000949 µM): 80.7% [middle of 7 runs]
- viability, T/C (compound 0.003 µM): 65.2% [middle of 7 runs]
- viability, T/C (compound 0.00949 µM): 49.8% [middle of 7 runs]
- viability, T/C (compound 0.03 µM): 37.4% [middle of 7 runs]
- viability, T/C (compound 0.0949 µM): 29.4% [middle of 7 runs]
- viability, T/C (compound 0.3 µM): 28.6% [middle of 7 runs]
- IC50 (compound alone, run of 08/26/2024): 8.13 nM [middle of 7 runs]

Structure (SMILES): CC(=O)OC12COC1CC(O)C1(C)C(=O)C(O)C3=C(C)C(OC(=O)C(O)C(NC(=O)OC(C)(C)C)c4ccccc4)CC(O)(C(OC(=O)c4ccccc4)C21)C3(C)C (stereo unspecified)
- viability, T/C (compound 0.0316 µM): 57.5% [middle of 4 runs]
- viability, T/C (compound 0.1 µM): 58.8% [middle of 4 runs]
- viability, T/C (compound 0.316 µM): 55.9% [middle of 4 runs]
- viability, T/C (compound 1 µM): 61.6% [middle of 4 runs]
- viability, T/C (compound 10 µM): 67.2% [middle of 4 runs]
